Data on three compounds can be found in patent publication US11766442B2, “T-cell lymphoma treatments” (City of Hope, priority 2017, dated 2023).

Like-named read-outs stand apart in the source and are kept apart here.

The subject of one data set is HUT78 cells. The data set is described as follows: Cell viability assay using HUT78 cells in a CELLTITER-GLO assay. Type of data set: cell-based, human. Here is the method:
Compound (1) and FK-228 (an anticancer agent used in CTCL) were tested in a cell viability assay using HUT78 cells in a CELLTITER-GLO® assay. […] See, FIG. 1B.
Compound (2) (FIG. 8A) was tested in a cell viability assay using HUT78 cells in a CELLTITER-GLO® assay. To determine IC50 value of Compound (2) against human CTCL HUT78 cells, viability assay was performed using CELLTITER-GLO® Reagent as described by the supplier (Promega, Madison, WI). Briefly, cells (7500/well) were seeded in opaque 96-well plates and exposed to Compound (1) in a dose-dependent manner for 72 h at 37° C. in 5% CO2. After 72 h treatment with compound (1), CELLTITER-GLO® Reagent ([…]) was added to 96-well plates. Viable cells which are metabolically active are directly proportional to the ATP present. Luminescent signals correlate with the amount of ATP present in cells. After 10 min incubation with CELLTITER-GLO® Reagent, luminescence was measured at an integration time of 1 second/well using an automated BMG plate reader. Dimethyl sulfoxide (DMSO) was used as the vehicle control. Each experiment was conducted in triplicate. IC50 values were determined using CalcuSyn software (Biosoft).
A general note: In ATP-based viability assays light output follows the ATP content of the culture.

The test system of data set [1] is HUT78 CTCL mouse xenograft. Put plainly: HUT78 CTCL mouse xenograft model. Format: in vivo. The settings on record: for Drug associated toxicity observed in mice: compound (1) 20 mg/kg gavage, FK-228 2 mg/kg intraperitoneal twice weekly. The method, then: Compound (1) and FK-228 were tested for tumor growth inhibition in CTCL mouse xenograft models. One group of mice was treated with 20 mg/kg of compound (1) using gavage during 3 consecutive days, followed by 3 consecutive days of break. Another group of mice was treated with 2 mg/kg of FK-228 intraperitoneal, twice weekly. Mice with no treatment served as a control. The tumor volume, size, and weight were compared 12 days after the treatments started.

Data set [2] relates to HUT78 CTCL cells. The data set is described as follows: Cell apoptosis assay using HUT78 CTCL cells. Type of data set: cell-based, human. The settings on record: incubated 72 h, read-out: IC50, apoptosis induction. Here is the method: Compound (1) was tested in a cell apoptosis assay using HUT78 CTCL cells.
For data set [3], the system named is HUT78 CTCL cells. The method, then:
Compound (1) was tested in a cell proliferation assay using HUT78 CTCL cells. The cells were treated with 0.3, 1, 3, 10, 30, or 100 nM concentration of compound (1), and then incubated for 48 h or 72 h under the growth conditions. […] Cells cultured in the absence of compound (1) served as a control.

The subject of data set [4] is HUT78 CTCL cells. The data set is described as follows: Carboxy-fluorescein succinimidyl ester (CFSE) staining cell proliferation assay. Format: cell-based, human. The settings on record: 1.0, 10 or 100 nM, incubated 72 h. Here is the method: Compound (1) was tested in a carboxy-fluorescein succinimidyl ester (CFSE) stained HUT78 CTCL proliferation assay. HUT78 cells were stained with CFSE dye. The CFSE stained cells were plated into 96-well plates in growth medium. The resulted cells were treated with 1.0, 10, or 100 nM solution of compound (1), and then incubated for 72 h under the growth conditions. After, optical densities were read on a multiwell scanning spectrophotometer at wavelength 488 nm.

On to `C/C=C1\NC(=O)[C@H]2CSSCC/C=C/[C@H](CC(=O)N[C@H](C(C)C)C(=O)N2)OC(=O)[C@H](C(C)C)NC1=O` [FK-228, Romidepsin, reference compound], for which the IC50 in the data set with HUT78 cells (Homo sapiens) turned out to be 6.95 nM.
With `C/C=C1\NC(=O)[C@H]2CSSCC/C=C/[C@H](CC(=O)N[C@H](C(C)C)C(=O)N2)OC(=O)[C@H](C(C)C)NC1=O` [romidespin, romidepsin, reference compound], the “Drug associated toxicity observed in mice” value in data set [1] was “Ascites and diarrhea”.
On to `CN1C(=O)[C@@]23C[C@](C)(C#N)[C@H](c4ccc5c(c4)OCO5)N2C(=O)C1(C)S3=S` (some centres unmarked) [compound (1)], for which the IC50 is 19.7 nM in the data set on HUT78 CTCL cells [2]; 6.61 nM in the data set with HUT78 cells; 75 nM with HUT78 CTCL cells [3] (read-out: IC50, cell proliferation, incubated 48 h); 10 nM in the data set on HUT78 CTCL cells [3] (read-out: IC50, cell proliferation, incubated 72 h). The “Reduction of the tumor size” value in data set [1] (20 mg/kg gavage, 3 consecutive days on, 3 days break, 12 days after treatment start) was “results in the reduction of the tumor size”. This compound also gave a Tumor weight inhibition in data set [1] (20 mg/kg gavage, 3 consecutive days on, 3 days break, 12 days after treatment start, P<0.001) of 89.8%. In data set [1] (20 mg/kg gavage, 3 consecutive days on, 3 days break, compared 12 days after treatment start, versus FK-228 regimen and vehicle), the “Tumor growth inhibition (tumor volume)” value is recorded as “results in tumor growth inhibition”. Also, in data set [1], the “Drug associated toxicity observed in mice” value is “no toxicity was observed”. Besides, in the data set with HUT78 CTCL cells [4], the “Inhibition of proliferation of CFSE stained HUT78 CTCL cells” value is listed as “inhibits proliferation of HUT78 CTCL cells”.
